Results from patent US20230391748A1, “BICYCLIC INHIBITORS OF IRAK” (priority 2022, published 2023).
Where two headings read alike, the source gives them in different places.

Legend:
TNF-α in human PBMCs = assay: R848-induced TNF-α in human PBMCs Assay; assay type: cell-based; conditions: PBMC
Description: R848-induced TNF-α in human PBMCs Assay
100 μL/well PBMCs (200K/well) were seeded in 96-well flat-bottom tissue culture plates. […] 100 μL/well 2× compound was added to the PBMC in the tissue culture plates. […] The cells were stimulated with R848 for an additional 4 hours at 37° C., 5% CO2. The supernatant (100 μl/well) was harvested to measure TNF-α by ELISA. […] The chemiluminescence values were entered into Athena (Rigel) for curve fitting, EC50 calculation, and database storage.
(§1) TNF-α ELISA was performed according to the vendor protocol, using 96 Well Flat-Bottom, MaxiSorp Black Immuno plates and 100 μL/well of supernatant. The plates were developed using 100 μL/well of Super Signal ELISA Pico Chemiluminescent Substrate. The plates were read with a luminometer, and the chemiluminescence values were entered into Athena (Rigel) for curve fitting, EC50 calculation, and database storage.

[1] = tested on: TNF-α in Human Primary Monocyte-Derived Dendritic Cells; assay: Gardiquimod-Induced TNF-α in Human Primary Monocyte-Derived Dendritic Cells; assay type: cell-based; conditions: Dendritic cell
Description: Gardiquimod-Induced TNF-α in Human Primary Monocyte-Derived Dendritic Cells
After 2 hours, the media including floating cells was carefully removed and 12 ml of fresh RPMI media (10% FBS) containing GM-CSF (100 ng/ml) and IL-4 (20 ng/ml) were added to the adherent monocytes. The monocytes were allowed to differentiate for 7 days at 37° C., 5% CO2 for 7 days, supplementing with fresh GM-CSF and IL-4 after 3 days. The differentiated dendritic cells (DC) were harvested by centrifugation (1200 rpm/5 min). The DCs were primed at 37° C., 5% CO2 for 24 hours with 50 ng/ml IFN-γ (1000 U/ml) at 50K/well in 100 μl/well of fresh RPMI media (10% FBS) in a white clear bottom 96 well plate.
The primed DCs were pre-incubated with test compound for 1 hour at 37° C., 5% CO2 by adding 100 μl of RPMI media containing 2× concentrated test compound per well (0.5% final DMSO concentration).
DCs were stimulated with Gardiquimod (10 μl per well of 20× concentrated Gardiquimod solution in RPMI media to give a final concentration of 4 μg/ml) at 37° C., 5% CO2 for an additional 6 hours. The supernatant (100 μl/well) was harvested to measure TNF-α by ELISA. […] The chemiluminescence values were entered into Athena (Rigel) for curve fitting, EC50 calculation, and database storage.
as §1

IL23p19 in THP-1 Cells = assay: LPS Induced IL23p19 in THP-1 Cells (with IFNγ Primed) Assay; assay type: cell-based; conditions: Homo sapiens
Description: LPS Induced IL23p19 in THP-1 Cells (with IFNγ Primed) Assay
On day 1, 50K/well THP-1 cells were seeded and primed with IFNγ (50 ng/mL) in 384-well plates for about 18 hours in RPMI media with 10% FBS. […] 50 μL/well 2× compound was added to 50 μL/well THP-1 cells (with IFNγ primed) in duplicate in 384 well tissue culture plates. […] Day 3, after stimulation for 18 hours at 37° C., 5% CO2, the assay plate was centrifuged and 70 μL/well supernatant was harvested. IL-23p19 protein in 70 µL/well of supernatant was measured by sandwich ELISA, and 25 μl/well Cell Titer Glo reagent was added to the remaining cells to measure compound toxicity.
Maxisorp immuno ELISA plates were pre-coated with 25 μL/well of anti-IL-23p19 capture antibody (2.5 ug/mL) in PBS overnight at room temperature. […] 25 μL/well of biotin labeled anti-IL-12(p40/p70) detection antibody (100 ng/mL) in PBS with 1% BSA was added and the plates were incubated at room temperature for 2 hours with shaking. […] The plates were read with a luminometer, and the chemiluminescence values were entered into Athena (Rigel) for curve fitting, EC50 calculation, and database storage.

IRAK4 = IRAK4 (Homo sapiens (Human), UniProt Q9NWZ3); assay: IRAK4 ADP-Glo Assay; assay type: biochemical; conditions: MBP substrate
Chain of IRAK4 (Q9NWZ3 whole entry): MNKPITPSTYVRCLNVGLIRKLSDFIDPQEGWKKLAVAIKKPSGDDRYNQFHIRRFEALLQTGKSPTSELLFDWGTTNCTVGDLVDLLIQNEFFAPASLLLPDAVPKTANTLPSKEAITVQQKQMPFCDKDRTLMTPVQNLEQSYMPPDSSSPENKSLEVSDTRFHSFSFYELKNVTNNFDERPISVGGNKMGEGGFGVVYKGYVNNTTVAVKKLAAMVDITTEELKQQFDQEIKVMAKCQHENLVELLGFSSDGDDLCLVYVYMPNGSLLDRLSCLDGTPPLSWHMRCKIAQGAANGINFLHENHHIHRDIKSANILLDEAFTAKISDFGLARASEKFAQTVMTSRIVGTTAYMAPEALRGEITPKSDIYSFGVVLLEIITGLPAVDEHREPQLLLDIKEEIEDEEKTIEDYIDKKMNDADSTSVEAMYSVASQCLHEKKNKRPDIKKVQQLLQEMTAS
Description: The ADP-Glo™ reagents were thawed at ambient temperature. The Kinase Detection Reagent was prepared by mixing kinase detection buffer with the lyophilized kinase detection substrate, and set aside.
A stock volume of 5× Reaction Kinase Buffer was made with a final concentration of 100 mM MgCl2, 200 mM Tris-HCl, and 0.5 mg/ml of BSA, in distilled H2O with a final pH7.4. A 2× working stock volume of Reaction Kinase Buffer was made containing a final concentration of 100 μM DTT.
The components of IRAK4 Enzyme were thawed on ice. Diluted IRAK4 in 1× Kinase Reaction Buffer (diluted from 2× buffer) was prepared at 5.0 ng/μl.
Then diluted 1:5 in 2× Reaction Buffer in a 96 well plate. 1.0 μl was transferred to a 384 well plate in duplicate. […] 1 μl of 1 mg/ml stock solution of MBP substrate was added NOTE: MBP can be combined with ATP mix with equal volume and then added at 2 μl/well. Final reaction volume was 5 μl.
The plate was centrifuged and the reaction mixture was incubated at room temperature for 60 minutes or at 30° C. for 30 minutes.
The reaction was terminated and the remaining ATP was depleted by adding 5 μl of ADP-Glo™ Reagent. The 384-well plate was centrifuged and then the reaction mixture was incubated for another 40 minutes at ambient temperature.
10 μl of the Kinase Detection Reagent was added. The plate was centrifuged and then the reaction mixture was incubated for another 30 minutes at ambient temperature.
The 384-well reaction plate was read using the WALLAC plate reader (Luminescence 0.1s).

[2] = Homo sapiens, 4 h, read-out: TNFα (PBMC, R848) (IC50, μM)
[3] = THP-1, 18 h, read-out: IL23 (THP, LPS) (IC50, μM)
[4] = IFNγ-primed monocyte-derived dendritic cells, 4 μg/ml Gardiquimod, 6 hours, TNF-α ELISA, read-out: TNFα (DC, GARD) (IC50)

SMILES	IC50 (TNF-α in human PBMCs; [2])	IC50 ([1]; 6 h, read-out: TNFα (DC, GARD) (IC50, μM))	IC50 (IL23p19 in THP-1 Cells; [3])	IC50 (IRAK4)	IC50 [1, 4]	IC50 (TNF-α in human PBMCs; human PBMCs, 65 ng/mL R848, 4 hours, TNF-α ELISA, read-out: TNFα (PBMC, R848) (IC50))	IC50 (IL23p19 in THP-1 Cells; IFNγ-primed THP-1 cells, 1 μg/mL LPS, 18 hours, IL-23p19 ELISA, read-out: IL23 (THP, LPS) (IC50))
CC(C)Oc1cc2c(OC[C@@H]3CCC(=O)N3)ncc(Br)c2cc1C(N)=O [Compound I-1, (S)-4-bromo-7-isopropoxy-1-((5-oxopyrrolidin-2-yl)methoxy)isoquinoline-6-carboxamide]	2.61 µM	2.64 µM	9.48 µM	34 nM			
CC(C)Oc1cc2c(OC[C@@H]3CC(F)(F)C(=O)N3)ncc(Br)c2cc1C(N)=O [Compound I-2, (S)-4-bromo-1-((4,4-difluoro-5-oxopyrrolidin-2-yl)methoxy)-7-isopropoxyisoquinoline-6-carboxamide]	1.15 µM		5.53 µM	4.4 nM	5.34 µM		
CC(C)Oc1cc2c(OC[C@@H]3CCC(=O)N3)ncc(C#CC(C)(C)O)c2cc1C(N)=O [Compound I-3, (S)-4-(3-hydroxy-3-methylbut-1-yn-1-yl)-7-isopropoxy-1-((5-oxopyrrolidin-2-yl)methoxy)isoquinoline-6-carboxamide]	0.36 µM		0.879 µM	12.5 nM	0.411 µM		
CC(C)Oc1cc2c(OC[C@@H]3CCC(=O)N3)ncc(C#CC3(O)CCN(C)CC3)c2cc1C(N)=O [Compound I-14, (S)-4-((4-hydroxy-1-methylpiperidin-4-yl)ethynyl)-7-isopropoxy-1-((5-oxopyrrolidin-2-yl)methoxy)isoquinoline-6-carboxamide]	3.93 µM			5.4 nM	7.87 µM		
CC(C)Oc1cc2c(OC[C@@H]3CCC(=O)N3)ncc(C#CC3CCN(C(C)C)CC3)c2cc1C(N)=O [Compound I-19, (S)-7-isopropoxy-4-((1-isopropylpiperidin-4-yl)ethynyl)-1-((5-oxopyrrolidin-2-yl)methoxy)isoquinoline-6-carboxamide]			0.124 µM	6.7 nM	0.618 µM		
CC(C)Oc1cc2c(OC[C@@H]3CC(F)(F)C(=O)N3)ncc(C#CC3(O)CCN(C(=O)OC(C)(C)C)CC3)c2cc1C(N)=O [Compound I-52, tert-butyl (S)-4-((6-carbamoyl-1-((4,4-difluoro-5-oxopyrrolidin-2-yl)methoxy)-7-isopropoxyisoquinolin-4-yl)ethynyl)-4-hydroxypiperidine-1-carboxylate]	0.338 µM		4.57 µM		0.927 µM		
CC(C)Oc1cc2c(OC[C@@H]3CC(F)(F)C(=O)N3)ncc(C#CC3CN(C)C3)c2cc1C(N)=O [Compound I-64, (S)-1-((4,4-difluoro-5-oxopyrrolidin-2-yl)methoxy)-7-isopropoxy-4-((1-methylazetidin-3-yl)ethynyl)isoquinoline-6-carboxamide]	0.0215 µM			3.6 nM	0.0286 µM		
CC[C@@H]1[C@H](F)C(=O)N[C@@H]1COc1ncc(C#CC2CCOCC2)c2cc(C(N)=O)c(OC(C)C)cc12 [Compound I-79, 1-(((2S,3S,4S)-3-ethyl-4-fluoro-5-oxopyrrolidin-2-yl)methoxy)-7-isopropoxy-4-((tetrahydro-2H-pyran-4-yl)ethynyl)isoquinoline-6-carboxamide]			0.0072 µM	18.1 nM			
CCO[C@H]1CC[C@H](C#Cc2cnc(OC[C@H]3NC(=O)[C@@H](F)[C@H]3CC)c3cc(OC(C)C)c(C(N)=O)cc23)CC1 [Compound I-80, 4-(((1r,4S)-4-ethoxycyclohexyl)ethynyl)-1-(((2S,3S,4S)-3-ethyl-4-fluoro-5-oxopyrrolidin-2-yl)methoxy)-7-isopropoxyisoquinoline-6-carboxamide]			0.0105 µM	390 nM			
CCO[C@H]1CC[C@@H](C#Cc2cnc(OC[C@H]3NC(=O)[C@@H](F)[C@H]3CC)c3cc(OC(C)C)c(C(N)=O)cc23)CC1 [Compound I-81, 4-(((1s,4R)-4-ethoxycyclohexyl)ethynyl)-1-(((2S,3S,4S)-3-ethyl-4-fluoro-5-oxopyrrolidin-2-yl)methoxy)-7-isopropoxyisoquinoline-6-carboxamide]			0.0163 µM	463 nM			
CC(C)Oc1cc2c(O[C@@H]3CCCNC3)ncc(C#CC3(O)CCCC3)c2cc1C(N)=O [Compound I-85, (R)-4-((1-hydroxycyclopentyl)ethynyl)-7-isopropoxy-1-(piperidin-3-yloxy)isoquinoline-6-carboxamide]	2.08 µM		1.96 µM		4.86 µM		
CC(C)Oc1cc2c(O[C@@H]3CCCN(C(=O)CC#N)C3)ncc(C#CC3(O)CCNCC3)c2cc1C(N)=O [Compound I-93, (R)-1-((1-(2-cyanoacetyl)piperidin-3-yl)oxy)-4-((4-hydroxypiperidin-4-yl)ethynyl)-7-isopropoxyisoquinoline-6-carboxamide]				23 nM			
CC(C)Oc1cc2c(O[C@@H]3CCCN(C(=O)CC#N)C3)ncc(C#CC3(O)CCN(C)CC3)c2cc1C(N)=O [Compound I-94, (R)-1-((1-(2-cyanoacetyl)piperidin-3-yl)oxy)-4-((4-hydroxy-1-methylpiperidin-4-yl)ethynyl)-7-isopropoxyisoquinoline-6-carboxamide]	8.08 µM		18.8 µM	56.8 nM			
CC(C)Oc1cc2c(O[C@@H]3CCCN(C(=O)OC(C)(C)C)C3)ncc(-c3cnn(C4CC4)c3)c2cc1C(N)=O [Compound I-107, tert-butyl (R)-3-((6-carbamoyl-4-(1-cyclopropyl-1H-pyrazol-4-yl)-7-isopropoxyisoquinolin-1-yl)oxy)piperidine-1-carboxylate]						38.2 µM	103 µM
CC(C)Oc1cc2c(O[C@@H]3CCCN(C(=O)CC#N)C3)ncc(-c3cnn(C4CCNCC4)c3)c2cc1C(N)=O [Compound I-122, (R)-1-((1-(2-cyanoacetyl)piperidin-3-yl)oxy)-7-isopropoxy-4-(1-(piperidin-4-yl)-1H-pyrazol-4-yl)isoquinoline-6-carboxamide]	2.16 µM			24 nM	1 µM		
